These results are taken from US20190135793A1, “HETEROCYCLIC INHIBITORS OF KDM5 FOR THE TREATMENT OF DISEASE” (Board of Regents, The University of Texas System, priority 2017, published 2019).

One assay concerns the target T1, KDM5B (Homo sapiens, UniProt Q9UGL1).
T1 construct: Full length of KDM5B and KDM4C protein were purchased from Active Motif; purchased Active Motif 31832
The experiment in a line: biochemical. The method in brief: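 KDM5B (0.5 nM final) was preincubated with compound for 15 min at room temperature, then reacted with biotinylated peptide (3 nM final) for 25 min at room temperature.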

The target of a further assay is T2, KDM4C (Homo sapiens, UniProt Q9H3R0).
T2 construct: Full length of KDM5B and KDM4C protein were purchased from Active Motif; purchased Active Motif 31858
T2 sequence (Q9H3R0 1-1056): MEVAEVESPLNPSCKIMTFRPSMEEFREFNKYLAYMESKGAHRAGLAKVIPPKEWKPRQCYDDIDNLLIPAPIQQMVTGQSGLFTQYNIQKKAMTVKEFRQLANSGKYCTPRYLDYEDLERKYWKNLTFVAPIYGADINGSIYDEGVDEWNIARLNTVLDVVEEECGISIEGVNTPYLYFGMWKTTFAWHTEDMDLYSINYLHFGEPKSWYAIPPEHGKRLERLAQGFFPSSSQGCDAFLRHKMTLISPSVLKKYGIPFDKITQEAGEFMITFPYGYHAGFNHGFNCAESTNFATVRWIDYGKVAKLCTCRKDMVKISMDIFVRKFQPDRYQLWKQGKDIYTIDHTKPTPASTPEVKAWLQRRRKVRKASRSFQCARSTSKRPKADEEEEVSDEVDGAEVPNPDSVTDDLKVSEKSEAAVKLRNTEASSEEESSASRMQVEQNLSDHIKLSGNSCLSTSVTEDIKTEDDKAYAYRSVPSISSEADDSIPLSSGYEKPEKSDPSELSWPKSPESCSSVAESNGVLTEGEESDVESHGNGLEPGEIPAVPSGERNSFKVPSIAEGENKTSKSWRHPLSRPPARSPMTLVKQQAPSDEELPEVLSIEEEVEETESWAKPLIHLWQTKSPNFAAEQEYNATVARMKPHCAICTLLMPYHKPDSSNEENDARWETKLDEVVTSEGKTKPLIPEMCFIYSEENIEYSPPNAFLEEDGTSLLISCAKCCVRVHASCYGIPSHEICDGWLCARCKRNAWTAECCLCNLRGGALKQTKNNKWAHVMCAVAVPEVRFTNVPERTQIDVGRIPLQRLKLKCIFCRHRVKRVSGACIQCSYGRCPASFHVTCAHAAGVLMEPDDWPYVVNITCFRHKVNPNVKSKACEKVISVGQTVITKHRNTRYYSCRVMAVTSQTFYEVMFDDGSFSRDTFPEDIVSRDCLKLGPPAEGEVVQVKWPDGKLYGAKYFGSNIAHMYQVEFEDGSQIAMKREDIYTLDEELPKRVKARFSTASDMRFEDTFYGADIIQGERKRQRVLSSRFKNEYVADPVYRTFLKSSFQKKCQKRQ
The experiment in a line: KDM4C AlphaScreen assay. It is filed as biochemical. To be noted: AlphaScreen; full length KDM4C 0.2 nM; biotinylated H3K9Me3 peptide 3 nM; 30 minutes at room temperature. Put shortly: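 Full-length KDM4C (0.2 nM final) was preincubated 15 min at RT with compound in HEPES pH 7.4 with Tween-20, BSA and TCEP. The reaction ran 30 min at RT after adding biotinylated peptide (3 nM final) in buffer with Fe(II), α-ketoglutarate and ascorbate. EDTA-containing AlphaScreen beads stopped it; IC50 was curve-fitted.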
(In general: In Alpha technology, singlet oxygen from a donor bead excites a nearby acceptor bead.)

Where [1] appears, read: AlphaScreen, full length KDM5B 0.5 nM, biotinylated H3K4Me3 peptide 3 nM, 25 minutes at room temperature, read-out: KDM5B (IC50).

Like-named read-outs stand apart in the source and are kept apart here.

T1 sequence (Q9UGL1 whole entry): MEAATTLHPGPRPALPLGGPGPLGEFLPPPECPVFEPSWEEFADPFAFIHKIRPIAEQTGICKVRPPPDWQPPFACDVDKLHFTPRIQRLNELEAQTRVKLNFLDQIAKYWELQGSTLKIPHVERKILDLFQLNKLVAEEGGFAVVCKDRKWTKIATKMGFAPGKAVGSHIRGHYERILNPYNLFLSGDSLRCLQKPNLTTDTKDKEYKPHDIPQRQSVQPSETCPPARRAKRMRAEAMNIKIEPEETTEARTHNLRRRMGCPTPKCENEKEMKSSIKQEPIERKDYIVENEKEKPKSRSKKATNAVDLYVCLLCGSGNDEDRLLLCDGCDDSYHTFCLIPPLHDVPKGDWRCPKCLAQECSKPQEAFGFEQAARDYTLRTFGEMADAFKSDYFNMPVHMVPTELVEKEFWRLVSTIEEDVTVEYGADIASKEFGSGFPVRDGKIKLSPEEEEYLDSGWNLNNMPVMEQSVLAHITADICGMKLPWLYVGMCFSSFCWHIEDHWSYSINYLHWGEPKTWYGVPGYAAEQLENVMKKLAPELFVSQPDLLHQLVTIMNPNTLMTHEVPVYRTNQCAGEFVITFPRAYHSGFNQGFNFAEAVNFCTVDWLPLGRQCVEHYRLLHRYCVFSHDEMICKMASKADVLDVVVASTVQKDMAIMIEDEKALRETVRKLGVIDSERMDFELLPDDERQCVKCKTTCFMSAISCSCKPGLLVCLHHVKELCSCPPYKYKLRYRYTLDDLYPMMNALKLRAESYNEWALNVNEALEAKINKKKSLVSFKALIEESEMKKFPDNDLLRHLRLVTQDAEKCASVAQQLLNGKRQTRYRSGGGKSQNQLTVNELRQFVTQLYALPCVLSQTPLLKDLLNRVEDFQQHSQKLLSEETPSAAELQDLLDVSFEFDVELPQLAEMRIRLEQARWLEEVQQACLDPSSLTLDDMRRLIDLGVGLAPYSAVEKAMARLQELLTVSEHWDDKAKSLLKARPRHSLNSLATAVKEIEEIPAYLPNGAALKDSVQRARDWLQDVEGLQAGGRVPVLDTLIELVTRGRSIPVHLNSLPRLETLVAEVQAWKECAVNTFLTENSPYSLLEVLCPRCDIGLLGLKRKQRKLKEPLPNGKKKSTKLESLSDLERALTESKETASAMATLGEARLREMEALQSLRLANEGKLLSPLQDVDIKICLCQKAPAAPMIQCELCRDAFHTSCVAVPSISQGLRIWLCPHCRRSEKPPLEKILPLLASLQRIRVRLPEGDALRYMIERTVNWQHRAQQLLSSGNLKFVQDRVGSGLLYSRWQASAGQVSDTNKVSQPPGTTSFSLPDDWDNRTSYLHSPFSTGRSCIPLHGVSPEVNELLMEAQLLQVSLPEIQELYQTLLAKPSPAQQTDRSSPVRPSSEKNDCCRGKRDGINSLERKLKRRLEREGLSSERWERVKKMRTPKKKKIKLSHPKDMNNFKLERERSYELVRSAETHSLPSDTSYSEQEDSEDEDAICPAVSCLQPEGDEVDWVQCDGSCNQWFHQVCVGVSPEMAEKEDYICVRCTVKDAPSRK

As usually defined, the IC50 is the concentration needed to halve the response being measured. Take `CC(C)c1c(O)nc(-n2ccnc2)nc1OCCN1CCNCC1` [Example 124, 2-(1H-Imidazol-1-yl)-6-[2-(piperazin-1-yl)ethoxy]-5-(propan-2-yl)pyrimidin-4-ol]: the half-maximal inhibitory concentration (IC50) on KDM5B (setting [1]) worked out at 0.01 µM; on KDM4C, 1.2 µM.

On to `CC(=O)N1CCN(CCOc2nc(-n3ccnc3)nc(O)c2C(C)C)CC1` [Example 125, 1-[4-(2-{[6-Hydroxy-2-(1H-imidazol-1-yl)-5-(propan-2-yl)pyrimidin-4-yl]oxy}ethyl)-piperazin-1-yl]ethan-1-one], for which the values for the IC50 on KDM5B (setting [1]) and at KDM4C were 0.014 µM and 2.33 µM, respectively.

Regarding `CC(C)c1c(O)nc(-n2ccnc2)nc1OCC1COCCN1` (centres unmarked) [Example 126, 2-(1H-Imidazol-1-yl)-6-(morpholin-3-ylmethoxy)-5-(propan-2-yl)pyrimidin-4-ol], the IC50 worked out at 0.015 µM at KDM5B and 0.84 µM against KDM4C.

`CC(C)c1c(O)nc(-n2ccnc2)nc1OCC1CN(C(=O)OCc2ccccc2)CCN1` (centres unmarked) [Example 127, Benzyl 3-({[6-hydroxy-2-(1H-imidazol-1-yl)-5-(propan-2-yl)pyrimidin-4-yl]-oxy}methyl)piperazine-1-carboxylate]: the IC50 at KDM5B (setting [1]) worked out at 0.018 µM; against KDM4C, 3.08 µM.

For the molecule `CC(C)c1c(O)nc(-n2ccnc2)nc1OCC1(N)CC1` [Example 128, 6-[(1-Aminocyclopropyl)-methoxy]-2-(1H-imidazol-1-yl)-5-(propan-2-yl)pyrimidin-4-ol], the IC50 on KDM5B (setting [1]) amounted to 0.019 µM; at KDM4C, 1.4 µM.

As to `CC(C)c1c(O)nc(-n2ccnc2)nc1OCCc1ccncc1` [Example 129, 2-(1H-Imidazol-1-yl)-5-(propan-2-yl)-6-[2-(pyridin-4-yl)ethoxy]pyrimidin-4-ol], the IC50 turned out to be 0.027 µM against KDM5B and 1.12 µM against KDM4C.

Regarding `CC(C)c1c(O)nc(-n2ccnc2)nc1OCCN1CCCCC1` [Example 130, 2-(1H-Imidazol-1-yl)-6-[2-(piperidin-1-yl)ethoxy]-5-(propan-2-yl)pyrimidin-4-ol], the IC50 was 0.027 µM against KDM5B and 3.67 µM against KDM4C.

Consider `CC(C)c1c(O)nc(-n2ccnc2)nc1OCCC1CCOCC1` [Example 131, 2-(1H-Imidazol-1-yl)-6-[2-(oxan-4-yl)ethoxy]-5-(propan-2-yl)pyrimidin-4-ol], for which the half-maximal inhibitory concentration (IC50) is 0.027 µM on KDM5B and 2.09 µM on KDM4C.

In the case of `CC(C)c1c(O)nc(-n2ccnc2)nc1OCCN1CCCC1=O` [Example 132, 1-(2-{[6-Hydroxy-2-(1H-imidazol-1-yl)-5-(propan-2-yl)pyrimidin-4-yl]oxy}ethyl)-pyrrolidin-2-one], the 50% inhibitory concentration (IC50) on KDM5B amounted to 0.03 µM; at KDM4C, 2.41 µM.

With `COC(=O)COc1nc(-n2ccnc2)nc(O)c1C(C)C` [Example 133, Methyl 2-{[6-hydroxy-2-(1H-imidazol-1-yl)-5-(propan-2-yl)pyrimidin-4-yl]oxy}acetate], the IC50 is 0.03 µM against KDM5B and 1.33 µM at KDM4C.

As to `CC(C)c1c(O)nc(-n2ccnc2)nc1OCc1ccccc1` [Example 134, 6-(Benzyloxy)-2-(1H-imidazol-1-yl)-5-(propan-2-yl)pyrimidin-4-ol], the IC50 turned out to be 0.031 µM at KDM5B and 1.45 µM on KDM4C.

On to `CC(C)c1c(O)nc(-n2ccnc2)nc1OC1CCOC1` (centres unmarked) [Example 135, 2-(1H-Imidazol-1-yl)-6-(oxolan-3-yloxy)-5-(propan-2-yl)pyrimidin-4-ol], for which the IC50 was found to be 0.047 µM against KDM5B and 2.05 µM on KDM4C.

For `CC(C)c1c(O)nc(-n2ccnc2)nc1OCc1ccncn1` [Example 136, 2-(1H-Imidazol-1-yl)-5-(propan-2-yl)-6-(pyrimidin-4-ylmethoxy)pyrimidin-4-ol], the IC50 against KDM5B was 0.055 µM; against KDM4C, 2.41 µM.

`CC(C)c1c(O)nc(-n2ccnc2)nc1OCCN(C)C` [Example 137, 6-[2-(Dimethylamino)-ethoxy]-2-(1H-imidazol-1-yl)-5-(propan-2-yl)pyrimidin-4-ol]: the half-inhibitory concentration (IC50) came to 0.058 µM on KDM5B (setting [1]) and 0.975 µM against KDM4C.

As for `CC(CN1CCOCC1)Oc1nc(-n2ccnc2)nc(O)c1C(C)C` (centres unmarked) [Example 138, 2-(1H-Imidazol-1-yl)-6-{[1-(morpholin-4-yl)propan-2-yl]oxy}-5-(propan-2-yl)-pyrimidin-4-ol], the IC50 against KDM5B amounted to 0.065 µM; on KDM4C it was 5.56 µM.

For the molecule `CC(C)c1c(O)nc(-n2ccnc2)nc1OCC1CCOCC1` [Example 139, 2-(1H-Imidazol-1-yl)-6-(oxan-4-ylmethoxy)-5-(propan-2-yl)pyrimidin-4-ol], the results for the IC50 on KDM5B (setting [1]) and against KDM4C were 0.075 µM and 3.68 µM, respectively.

In the case of `CCCCCCOc1nc(-n2ccnc2)nc(O)c1C(C)C` [Example 140, 6-(Hexyloxy)-2-(1H-imidazol-1-yl)-5-(propan-2-yl)pyrimidin-4-ol], the IC50 at KDM5B (setting [1]) is 0.341 µM; on KDM4C it was 50 µM.

Turning to `CC(C)c1c(O)nc(-n2ccnc2)nc1OCC(=O)NCc1cccnc1` [Example 141, 2-{[6-Hydroxy-2-(1H-imidazol-1-yl)-5-(propan-2-yl)pyrimidin-4-yl]oxy}-N-(pyridin-3-ylmethyl)-acetamide], the IC50 on KDM5B (setting [1]) is 0.033 µM; on KDM4C, 4.4 µM.

On to `CC(C)c1c(O)nc(-n2ccnc2)nc1OCC(=O)N1CCOCC1` [Example 142, 2-{[6-Hydroxy-2-(1H-imidazol-1-yl)-5-(propan-2-yl)pyrimidin-4-yl]oxy}-1-(morpholin-4-yl)ethan-1-one], for which the IC50 was 0.035 µM on KDM5B and 2.13 µM at KDM4C.

As for `CC(C)c1c(O)nc(-c2cncs2)nc1OCc1cncnc1` [Example 143, 5-(Propan-2-yl)-6-(pyrimidin-5-ylmethoxy)-2-(1,3-thiazol-5-yl)pyrimidin-4-ol], the IC50 turned out to be 0.138 µM on KDM5B and 2.96 µM against KDM4C.

`CC(C)c1c(O)nc(-c2cncs2)nc1OCc1ccncc1` [Example 144, 5-(Propan-2-yl)-6-(pyridin-4-ylmethoxy)-2-(1,3-thiazol-5-yl)pyrimidin-4-ol]: the IC50 at KDM5B (setting [1]) was determined as 0.14 µM; on KDM4C, 2.92 µM.

As for `CC(C)c1c(O)nc(-c2cncs2)nc1OCc1ccccn1` [Example 145, 5-(Propan-2-yl)-6-(pyridin-2-ylmethoxy)-2-(1,3-thiazol-5-yl)pyrimidin-4-ol], the IC50 on KDM5B was determined as 0.163 µM; against KDM4C it was 21 µM.

Turning to `CC(C)c1c(O)nc(-c2cncs2)nc1OCC(C)(C)CO` [Example 147, 6-(3-Hydroxy-2,2-dimethylpropoxy)-5-(propan-2-yl)-2-(1,3-thiazol-5-yl)-pyrimidin-4-ol], the IC50 against KDM5B came to 1.47 µM; against KDM4C, 12.4 µM.

With `Cc1nc(-n2ccnc2C)nc(O)c1C(C)C` [Example 148, 6-Methyl-2-(2-methyl-1H-imidazol-1-yl)-5-(propan-2-yl)pyrimidin-4-ol], the IC50 came out at 0.48 µM on KDM5B and 9.46 µM against KDM4C.

Regarding `Cc1nc(-c2ccncc2)nc(O)c1C(C)C` [Example 149, 6-Methyl-5-(propan-2-yl)-2-(pyridin-4-yl)pyrimidin-4-ol], the results for the 50% inhibitory concentration (IC50) at KDM5B and on KDM4C were 3.32 µM and 50 µM, respectively.

With `Cc1nc(-c2scnc2C(=O)NCc2ccccc2)nc(O)c1C(C)C` [Example 150, N-benzyl-5-[6-methyl-4-oxo-5-(propan-2-yl)-1,4-dihydropyrimidin-2-yl]-1,3-thiazole-4-carboxamide], the values for the IC50 against KDM5B and against KDM4C were 1.12 µM and 16.9 µM, respectively.

For the molecule `Cc1cn(-c2nc(O)c(C(C)C)c(OCc3cccnc3)n2)cn1` [Example 151, 2-(4-Methyl-1H-imidazol-1-yl)-5-(propan-2-yl)-6-(pyridin-3-ylmethoxy)-pyrimidin-4-ol], the figures for the IC50 on KDM5B (setting [1]) and at KDM4C were 0.583 µM and 8.78 µM, respectively.

On to `CC(C)c1c(O)nc(-c2cncs2)nc1-c1cnn(C(C)C)c1` [Example 152, 5-(Propan-2-yl)-6-[1-(propan-2-yl)-1H-pyrazol-4-yl]-2-(1,3-thiazol-5-yl)pyrimidin-4-ol], for which the half-inhibitory concentration (IC50) was determined as 0.151 µM on KDM5B and 7.24 µM at KDM4C.
